Values of other authors, collected in PMC10930872, “Preparation, Structural Identification, and Screening of Egg-Derived Peptides with Facilitating Alcohol Metabolism Activity” (Foods, 2024).
pEC50: −log10 of the molar value.

What was measured:
hepatic ADH = conditions: ref [42],[43]
Text: This has to do with the fact that eggs contain all EAAs. […] Ala is involved in hepatic gluconeogenesis, which oxidizes NADH + H^+ to NAD^+, thereby maintaining cytoplasmic NAD^+ concentrations and promoting alcohol metabolism. […] It is reported that HAA (Tyr, Trp, Gl ...

[1] = target: T1, alcohol dehydrogenase (ADH) (Saccharomyces cerevisiae, UniProt P00330); conditions: pentapeptide screened by Zan et al., 2023; ref [59]; read-out: EC50 of ADH activation
T1 sequence (P00330 1-348): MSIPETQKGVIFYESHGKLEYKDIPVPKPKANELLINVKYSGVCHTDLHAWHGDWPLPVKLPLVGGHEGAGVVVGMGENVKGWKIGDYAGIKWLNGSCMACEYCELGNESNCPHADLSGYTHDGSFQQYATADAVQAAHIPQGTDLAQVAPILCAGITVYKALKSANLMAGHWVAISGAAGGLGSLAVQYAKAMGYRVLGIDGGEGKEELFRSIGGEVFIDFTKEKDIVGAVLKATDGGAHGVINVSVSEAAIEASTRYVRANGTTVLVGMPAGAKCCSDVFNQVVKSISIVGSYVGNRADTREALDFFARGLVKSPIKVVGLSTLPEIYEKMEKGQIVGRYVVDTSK
Text: GSH, a tripeptide composed of Glu, Cys, and Gly, is widely found in normal human cells, with the highest concentration in the liver. It plays an important role in scavenging free radicals, inhibiting inflammatory factors, relieving hangovers, and protecting the liver.

ethanol dehydrogenase = system: ethanol dehydrogenase; parameters: method as in doi:10.1016/j.lwt.2022.113376; conditions: ref [36]

## CC(C)C[C@H](N)C(=O)O [Leu, L-leucine]
Hepatic ADH
  Hepatic ADH activity: significantly increase hepatic ADH activity

## ILPHF [pentapeptide screened by Zan et al., 2023]
[1]
  pEC50: 5.80

## Lys-Pro-Cys [KPC, chicken-derived tripeptide]
Ethanol dehydrogenase
  Stability of ethanol dehydrogenase: enhanced the stability of ethanol dehydrogenase
